According to ChEMBL document CHEMBL3525983, “Pharmacokinetics, metabolism, and disposition of rivoglitazone, a novel peroxisome proliferator-activated receptor γ agonist, in rats and monkeys” (Drug Metab Dispos, 2011):

Key:
Rattus norvegicus [1] = test: Drug excretion in bile duct-cannulated rat cage wash at 0.5 mg/kg, iv administered via tail vein measured during 0 to 48 hrs by liquid scintillation counting; type: ADME, organism-based; set-up: dose 0.5 mg/kg, dosed compound name [14C]Rivoglitazone, route intravenous; settings: in vivo
Rattus norvegicus [2] = test: Total drug excretion in F344/DuCrlCrlj rat at 1 mg/kg, po administered via gavage measured during 0 to 48 hrs by liquid scintillation counting; type: ADME, organism-based; set-up: dose 1 mg/kg, dosed compound name [14C]Rivoglitazone, route oral; settings: in vivo
[3] = Drug excretion in monkey feces at 1 mg/kg, iv administered […] measured during 0 to 168 hrs by liquid scintillation counting; type: ADME, organism-based, Macaca mulatta; set-up: dose 1 mg/kg, dosed compound name [14C]Rivoglitazone, route intravenous; settings: rhesus monkey, in vivo
[4] = Drug excretion in F344/DuCrlCrlj rat urine at 1 mg/kg, iv administered via tail vein measured during 0 to 168 hrs by liquid scintillation counting; type: ADME, organism-based; set-up: dose 1 mg/kg, dosed compound name [14C]Rivoglitazone, route intravenous; settings: in vivo
Rhesus monkey [5] = test: Total drug excretion in monkey at 1 mg/kg, po administered via gavage measured during 0 to 168 hrs by liquid scintillation counting; type: ADME, organism-based, Macaca mulatta; set-up: dose 1 mg/kg, dosed compound name [14C]Rivoglitazone, route oral; settings: in vivo
[6] = Drug excretion in monkey urine at 1 mg/kg, iv administered via tail vein measured during 0 to 168 hrs by liquid scintillation counting; type: ADME, organism-based, Macaca mulatta; set-up: dose 1 mg/kg, dosed compound name [14C]Rivoglitazone, route intravenous; settings: rhesus monkey, in vivo
[7] = Drug excretion in bile duct-cannulated rat feces at 0.5 mg/kg, iv administered via tail vein measured during 0 to 48 hrs by liquid scintillation counting; type: ADME, organism-based; set-up: dose 0.5 mg/kg, dosed compound name [14C]Rivoglitazone, route intravenous; settings: in vivo
[8] = Drug excretion in monkey feces at 1 mg/kg, iv administered […] measured during 0 to 48 hrs by liquid scintillation counting; type: ADME, organism-based, Macaca mulatta; set-up: dose 1 mg/kg, dosed compound name [14C]Rivoglitazone, route intravenous; settings: rhesus monkey, in vivo
[9] = Drug excretion in F344/DuCrlCrlj rat urine at 1 mg/kg, iv administered via tail vein measured during 0 to 48 hrs by liquid scintillation counting; type: ADME, organism-based; set-up: dose 1 mg/kg, dosed compound name [14C]Rivoglitazone, route intravenous; settings: in vivo
Rhesus monkey [10] = test: Total drug excretion in monkey at 1 mg/kg, iv administered via tail vein measured during 0 to 48 hrs by liquid scintillation counting; type: ADME, organism-based, Macaca mulatta; set-up: dose 1 mg/kg, dosed compound name [14C]Rivoglitazone, route intravenous; settings: in vivo
Rhesus monkey [11] = test: Total drug excretion in monkey at 1 mg/kg, po administered via gavage measured during 0 to 48 hrs by liquid scintillation counting; type: ADME, organism-based, Macaca mulatta; set-up: dose 1 mg/kg, dosed compound name [14C]Rivoglitazone, route oral; settings: in vivo
[12] = Drug excretion in monkey urine at 1 mg/kg, po administered via gavage measured during 0 to 168 hrs by liquid scintillation counting; type: ADME, organism-based, Macaca mulatta; set-up: dose 1 mg/kg, dosed compound name [14C]Rivoglitazone, route oral; settings: rhesus monkey, in vivo
Rattus norvegicus [13] = test: Total drug excretion in bile duct-cannulated rat at 0.5 mg/kg, po administered via gavage measured during 0 to 48 hrs by liquid scintillation counting; type: ADME, organism-based; set-up: dose 0.5 mg/kg, dosed compound name [14C]Rivoglitazone, route oral; settings: in vivo
Rattus norvegicus [14] = test: Total drug excretion in F344/DuCrlCrlj rat at 1 mg/kg, iv administered via tail vein measured during 0 to 168 hrs by liquid scintillation counting; type: ADME, organism-based; set-up: dose 1 mg/kg, dosed compound name [14C]Rivoglitazone, route intravenous; settings: in vivo
[15] = Drug excretion in bile duct-cannulated rat bile at 0.5 mg/kg, iv administered via tail vein measured during 0 to 48 hrs by liquid scintillation counting; type: ADME, organism-based; set-up: dose 0.5 mg/kg, dosed compound name [14C]Rivoglitazone, route intravenous; settings: in vivo
Rhesus monkey [16] = test: Drug excretion in monkey cage wash at 1 mg/kg, iv administered […] measured during 0 to 168 hrs by liquid scintillation counting; type: ADME, organism-based, Macaca mulatta; set-up: dose 1 mg/kg, dosed compound name [14C]Rivoglitazone, route intravenous; settings: in vivo
[17] = Drug excretion in monkey urine at 1 mg/kg, po administered via gavage measured during 0 to 48 hrs by liquid scintillation counting; type: ADME, organism-based, Macaca mulatta; set-up: dose 1 mg/kg, dosed compound name [14C]Rivoglitazone, route oral; settings: rhesus monkey, in vivo
[18] = Drug excretion in F344/DuCrlCrlj rat urine at 1 mg/kg, po administered via gavage measured during 0 to 48 hrs by liquid scintillation counting; type: ADME, organism-based; set-up: dose 1 mg/kg, dosed compound name [14C]Rivoglitazone, route oral; settings: in vivo
[19] = Drug excretion in F344/DuCrlCrlj rat feces at 1 mg/kg, iv administered via tail vein measured during 0 to 48 hrs by liquid scintillation counting; type: ADME, organism-based; set-up: dose 1 mg/kg, dosed compound name [14C]Rivoglitazone, route intravenous; settings: in vivo
[20] = Drug excretion in monkey urine at 1 mg/kg, iv administered via tail vein measured during 0 to 48 hrs by liquid scintillation counting; type: ADME, organism-based, Macaca mulatta; set-up: dose 1 mg/kg, dosed compound name [14C]Rivoglitazone, route intravenous; settings: rhesus monkey, in vivo
Rhesus monkey [21] = test: Drug excretion in monkey cage wash at 1 mg/kg, po administered via gavage measured during 0 to 168 hrs by liquid scintillation counting; type: ADME, organism-based, Macaca mulatta; set-up: dose 1 mg/kg, dosed compound name [14C]Rivoglitazone, route oral; settings: in vivo
Rattus norvegicus [22] = test: Total drug excretion in F344/DuCrlCrlj rat at 1 mg/kg, iv administered via tail vein measured during 0 to 48 hrs by liquid scintillation counting; type: ADME, organism-based; set-up: dose 1 mg/kg, dosed compound name [14C]Rivoglitazone, route intravenous; settings: in vivo
[23] = Drug excretion in F344/DuCrlCrlj rat feces at 1 mg/kg, po administered via gavage measured during 0 to 48 hrs by liquid scintillation counting; type: ADME, organism-based; set-up: dose 1 mg/kg, dosed compound name [14C]Rivoglitazone, route oral; settings: in vivo
[24] = Drug excretion in F344/DuCrlCrlj rat urine at 1 mg/kg, po administered via gavage measured during 0 to 168 hrs by liquid scintillation counting; type: ADME, organism-based; set-up: dose 1 mg/kg, dosed compound name [14C]Rivoglitazone, route oral; settings: in vivo
[25] = Drug excretion in bile duct-cannulated rat urine at 0.5 mg/kg, po administered via gavage measured during 0 to 48 hrs by liquid scintillation counting; type: ADME, organism-based; set-up: dose 0.5 mg/kg, dosed compound name [14C]Rivoglitazone, route oral; settings: in vivo
Rattus norvegicus [26] = test: Drug excretion in bile duct-cannulated rat cage wash at 0.5 mg/kg, po administered via gavage measured during 0 to 48 hrs by liquid scintillation counting; type: ADME, organism-based; set-up: dose 0.5 mg/kg, dosed compound name [14C]Rivoglitazone, route oral; settings: in vivo
[27] = Drug excretion in F344/DuCrlCrlj rat feces at 1 mg/kg, iv administered via tail vein measured during 0 to 168 hrs by liquid scintillation counting; type: ADME, organism-based; set-up: dose 1 mg/kg, dosed compound name [14C]Rivoglitazone, route intravenous; settings: in vivo
[28] = Drug excretion in bile duct-cannulated rat feces at 0.5 mg/kg, po administered via gavage measured during 0 to 48 hrs by liquid scintillation counting; type: ADME, organism-based; set-up: dose 0.5 mg/kg, dosed compound name [14C]Rivoglitazone, route oral; settings: in vivo
[29] = Drug excretion in bile duct-cannulated rat bile at 0.5 mg/kg, po administered via gavage measured during 0 to 48 hrs by liquid scintillation counting; type: ADME, organism-based; set-up: dose 0.5 mg/kg, dosed compound name [14C]Rivoglitazone, route oral; settings: in vivo
Rattus norvegicus [30] = test: Total drug excretion in F344/DuCrlCrlj rat at 1 mg/kg, po administered via gavage measured during 0 to 168 hrs by liquid scintillation counting; type: ADME, organism-based; set-up: dose 1 mg/kg, dosed compound name [14C]Rivoglitazone, route oral; settings: in vivo
Rhesus monkey [31] = test: Total drug excretion in monkey at 1 mg/kg, iv administered via tail vein measured during 0 to 168 hrs by liquid scintillation counting; type: ADME, organism-based, Macaca mulatta; set-up: dose 1 mg/kg, dosed compound name [14C]Rivoglitazone, route intravenous; settings: in vivo
[32] = Drug excretion in bile duct-cannulated rat urine at 0.5 mg/kg, iv administered via tail vein measured during 0 to 48 hrs by liquid scintillation counting; type: ADME, organism-based; set-up: dose 0.5 mg/kg, dosed compound name [14C]Rivoglitazone, route intravenous; settings: in vivo
[33] = Drug excretion in monkey feces at 1 mg/kg, po administered via gavage measured during 0 to 48 hrs by liquid scintillation counting; type: ADME, organism-based, Macaca mulatta; set-up: dose 1 mg/kg, dosed compound name [14C]Rivoglitazone, route oral; settings: rhesus monkey, in vivo
[34] = Drug excretion in F344/DuCrlCrlj rat feces at 1 mg/kg, po administered via gavage measured during 0 to 168 hrs by liquid scintillation counting; type: ADME, organism-based; set-up: dose 1 mg/kg, dosed compound name [14C]Rivoglitazone, route oral; settings: in vivo
Rattus norvegicus [35] = test: Total drug excretion in bile duct-cannulated rat at 0.5 mg/kg, iv administered via tail vein measured during 0 to 48 hrs by liquid scintillation counting; type: ADME, organism-based; set-up: dose 0.5 mg/kg, dosed compound name [14C]Rivoglitazone, route intravenous; settings: in vivo
[36] = Drug excretion in monkey feces at 1 mg/kg, po administered via gavage measured during 0 to 168 hrs by liquid scintillation counting; type: ADME, organism-based, Macaca mulatta; set-up: dose 1 mg/kg, dosed compound name [14C]Rivoglitazone, route oral; settings: rhesus monkey, in vivo
Rattus norvegicus [37] = test: Drug level in F344/DuCrlCrlj rat plasma treated with [14C]rivoglitazone at 1 to 5 mg/kg, po administered as single dose via gavage by LC-MS/MS analysis; type: ADME, organism-based; set-up: dose 1-5 mg/kg, dosed compound name [14C]Rivoglitazone, route oral; settings: in vivo
Rhesus monkey [38] = test: Drug level in monkey plasma treated with [14C]rivoglitazone assessed as ratio of molar basis AUC (0 to t) at 1 mg/kg, po administered via gavage by LC-MS/MS analysis; type: ADME, organism-based, Macaca mulatta; set-up: dose 1 mg/kg, dosed compound name [14C]Rivoglitazone, route oral; settings: in vivo
Rattus norvegicus [39] = test: Drug level in F344/DuCrlCrlj rat plasma treated with [14C]rivoglitazone assessed as ratio of molar basis AUC (0 to t) at 1 mg/kg, po administered via gavage by LC-MS/MS analysis; type: ADME, organism-based; set-up: dose 1 mg/kg, dosed compound name [14C]Rivoglitazone, route oral; settings: in vivo
[40] = Retention time of the compound by LC-MS/MS analysis; type: physicochemical; set-up: dosed compound name [14C]Rivoglitazone
[41] = Drug excretion in F344/DuCrlCrlj rat urine/bile treated with [14C]rivoglitazone at 1 mg/kg, po administered via gavage measured during 0 to 48 hrs by radio-HPLC analysis; type: ADME, organism-based; set-up: dose 1 mg/kg, dosed compound name [14C]Rivoglitazone, route oral; settings: in vivo
[42] = Drug excretion in F344/DuCrlCrlj rat urine/feces treated with [14C]rivoglitazone at 1 mg/kg, po administered via gavage measured during 0 to 48 hrs by radio-HPLC analysis; type: ADME, organism-based; set-up: dose 1 mg/kg, dosed compound name [14C]Rivoglitazone, route oral; settings: in vivo
[43] = Drug excretion in F344/DuCrlCrlj rat feces treated with [14C]rivoglitazone at 1 mg/kg, po administered via gavage measured during 0 to 48 hrs by radio-HPLC analysis; type: ADME, organism-based; set-up: dose 1 mg/kg, dosed compound name [14C]Rivoglitazone, route oral; settings: in vivo
[44] = Drug excretion in F344/DuCrlCrlj rat bile treated with [14C]rivoglitazone at 1 mg/kg, po administered via gavage measured during 0 to 48 hrs by radio-HPLC analysis; type: ADME, organism-based; set-up: dose 1 mg/kg, dosed compound name [14C]Rivoglitazone, route oral; settings: in vivo
[45] = Drug excretion in F344/DuCrlCrlj rat urine treated with [14C]rivoglitazone at 1 mg/kg, po administered via gavage measured during 0 to 48 hrs by radio-HPLC analysis; type: ADME, organism-based; set-up: dose 1 mg/kg, dosed compound name [14C]Rivoglitazone, route oral; settings: in vivo

## COc1ccc2nc(COc3ccc(C[14CH]4SC(=O)NC4=O)cc3)n(C)c2c1 (racemic)
Rattus norvegicus [1]
  Radiolabel recovery: 5.7%
Rattus norvegicus [2]
  Radiolabel recovery: 99.1%
[3]
  Radiolabel recovery: 38.4%
[4]
  Radiolabel recovery: 25.6%
Rhesus monkey [5]
  Radiolabel recovery: 90%
[6]
  Radiolabel recovery: 47.4%
[7]
  Radiolabel recovery: 7%
[8]
  Radiolabel recovery: 10.3%
[9]
  Radiolabel recovery: 25.5%
Rhesus monkey [10]
  Radiolabel recovery: 49.7%
Rhesus monkey [11]
  Radiolabel recovery: 54.3%
[12]
  Radiolabel recovery: 36.7%
Rattus norvegicus [13]
  Radiolabel recovery: 81%
Rattus norvegicus [14]
  Radiolabel recovery: 101%
[15]
  Radiolabel recovery: 55.4%
Rhesus monkey [16]
  Radiolabel recovery: 0.1%
[17]
  Radiolabel recovery: 29.7%
[18]
  Radiolabel recovery: 18%
[19]
  Radiolabel recovery: 74.2%
[20]
  Radiolabel recovery: 39.4%
Rhesus monkey [21]
  Radiolabel recovery: 0.2%
Rattus norvegicus [22]
  Radiolabel recovery: 99.7%
[23]
  Radiolabel recovery: 81.1%
[24]
  Radiolabel recovery: 18.3%
[25]
  Radiolabel recovery: 19.9%
Rattus norvegicus [26]
  Radiolabel recovery: 4.8%
[27]
  Radiolabel recovery: 75.4%
[28]
  Radiolabel recovery: 19.1%
[29]
  Radiolabel recovery: 37.2%
Rattus norvegicus [30]
  Radiolabel recovery: 100%
Rhesus monkey [31]
  Radiolabel recovery: 86%
[32]
  Radiolabel recovery: 18.4%
[33]
  Radiolabel recovery: 24.6%
[34]
  Radiolabel recovery: 82%
Rattus norvegicus [35]
  Radiolabel recovery: 86.5%
[36]
  Radiolabel recovery: 53%

## Cn1c(COc2ccc(CC3SC(=O)NC3=O)cc2)nc2ccc(OS(=O)(=O)O)cc21 (stereo not given)
Rattus norvegicus [37]
  Compound recovery: metabolite_detected
Rhesus monkey [38]
  AUCmet/AUCp: 0.64%
Rattus norvegicus [39]
  AUCmet/AUCp: 23.4%
[40]
  Retention_time: 19 min
[41]
  Compound recovery: 33%
[42]
  Compound recovery: 10%
[43]
  Compound recovery: metabolite_not_detected
[44]
  Compound recovery: 23%
[45]
  Compound recovery: 10%
